Results from PubChem BioAssay (NCI).
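Dose response: 5 concentrations. Exposure: 48 h. Format: 96-well plates. Endpoint: linear interpolation; highest concentration if not reached. GI50 = concentration required for 50% inhibition of growth. TGI is the concentration that stops growth completely.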

Experiments:
Experiment in all cases: NCI anticancer screen, dose series, 48 h
SNB-75 CNS = system: SNB-75 CNS
786-0 renal = system: 786-0 renal
HCC-2998 colon = system: HCC-2998 colon
LOX IMVI melanoma = system: LOX IMVI melanoma
CCRF-CEM leukemia = system: CCRF-CEM leukemia
SK-OV-3 ovarian = system: SK-OV-3 ovarian
MDA-MB-435 = system: MDA-MB-435
BT-549 breast = system: BT-549 breast
DU-145 prostate = system: DU-145 prostate
HS 578T breast = system: HS 578T breast
MCF7 breast = system: MCF7 breast
PC-3 prostate = system: PC-3 prostate

| SMILES | TGI (SNB-75 CNS) [µM] | TGI (786-0 renal) [µM] | TGI (HCC-2998 colon) [µM] | TGI (LOX IMVI melanoma) [µM] | TGI (CCRF-CEM leukemia) [µM] | TGI (SK-OV-3 ovarian) [µM] | TGI (MDA-MB-435) [µM] | TGI (BT-549 breast) [µM] | TGI (DU-145 prostate) [µM] | TGI (HS 578T breast) [µM] | TGI (MCF7 breast) [µM] | TGI (PC-3 prostate) [µM] | GI50 (HCC-2998 colon) [µM] | GI50 (DU-145 prostate) [µM] | GI50 (LOX IMVI melanoma) [µM] | GI50 (MCF7 breast) [µM] | GI50 (PC-3 prostate) [µM] | GI50 (SNB-75 CNS) [µM] | GI50 (MDA-MB-435) [µM] | GI50 (SK-OV-3 ovarian) [µM] |
| --- | --- | --- | --- | --- | --- | --- | --- | --- | --- | --- | --- | --- | --- | --- | --- | --- | --- | --- | --- | --- |
| C[N+]1(C)C/C(=C\c2ccc(O)cc2)C(=O)/C(=C/c2ccc(O)cc2)C1 | > 100 | > 100 | > 100 | > 100 | > 100 | > 100 | – | – | – | – | – | – | – | – | – | – | – | – | – | – |
| NC(=S)N/N=C1\CC(c2ccccc2)Nc2ccccc21 (stereo unspecified) | 49.1 | – | – | > 100 | > 100 | > 100 | – | – | – | – | – | – | – | – | – | – | – | – | – | – |
| COc1ccc(OC)c([N+](=O)[O-])c1-c1nc2sc(C)c(C)n2c1/C=N/N=C(N)N | – | > 100 | > 100 | > 100 | > 100 | – | > 100 | 57.7 | > 100 | > 100 | 79.5 | > 100 | – | – | – | – | – | – | – | – |
| Nc1ccc(S(=O)(=O)NCCS(=O)(=O)O)cc1 | > 100 | > 100 | – | > 100 | > 100 | – | > 100 | > 100 | > 100 | > 100 | – | > 100 | – | – | – | – | – | – | – | – |
| CC(=O)C(N=NC1CCC(S(=O)(=O)NB2N=CS2)CC1)C(=O)Nc1ccccc1C (stereo unspecified) | 33.8 | – | 31.4 | – | > 100 | 50.6 | – | – | – | – | – | – | – | – | – | – | – | – | – | – |
| CC(=O)c1c(C)cc2cccc(OC3OC(CO)C(O)C(O)C3O)c2c1O (stereo unspecified) (tested in a mixture with another compound) | > 100 | > 100 | > 100 | > 100 | > 100 | > 100 | > 100 | > 100 | > 100 | > 100 | > 100 | > 100 | – | – | – | – | – | – | – | – |
| COc1cc(O)c2c(=O)c(OC)c(-c3ccc(OC)c(OC)c3)oc2c1.[Zn+2] | 8.79 | > 100 | > 100 | > 100 | – | 47.2 | – | > 100 | > 100 | 9.49 | > 100 | > 100 | 43.1 | 24.6 | 7.68 | 92.3 | 9.18 | – | – | – |
| C=C(C[C@@H](O)[C@H](C)NC(=O)OCc1ccccc1)C(=O)OC(C)(C)C | > 100 | – | > 100 | > 100 | 61.7 | > 100 | > 100 | > 100 | > 100 | > 100 | > 100 | > 100 | – | – | – | – | – | – | – | – |
| CCCCCCCCc1ccc(CCC(N)(CO)CO)cc1 | 4.2 | – | 2.96 | – | – | 3.09 | 3.45 | – | 3.24 | – | 3.07 | 3.41 | 1.57 | 1.81 | – | 1.67 | 1.75 | 2.13 | 1.82 | 1.61 |
| C[N+]1(c2ccccc2)C=C(c2ccccc2)SC1=S (stereo unspecified) | – | > 100 | > 100 | > 100 | – | – | > 100 | > 100 | > 100 | > 100 | > 100 | > 100 | – | – | – | – | – | – | – | – |
| O=S(=O)([O-])[O-].[Fe+2].[OH2+]c1c(Cl)cc(Cl)cc1/C=N/Nc1ccccn1 | 1.64 | 1.92 | 5.13 | 2.79 | – | 3.7 | – | – | – | – | – | – | – | – | – | – | – | – | – | 1.86 |
| CC(=O)Oc1cc(/C=C/c2ccc(O)cc2)cc(OC(C)=O)c1 | > 100 | > 100 | – | – | – | > 100 | > 100 | – | > 100 | > 100 | > 100 | > 100 | – | – | – | – | – | – | – | – |
| Cc1ncc(COP(=O)(O)O)c(C)c1O | – | > 100 | – | > 100 | – | – | > 100 | > 100 | – | > 100 | – | > 100 | – | – | – | – | – | – | – | – |
| Cc1cccc(/C=C2/C(=O)Nc3ccccc32)n1 | > 100 | 27.3 | 22.4 | > 62.6 | > 85.9 | 52 | 60.9 | 68.6 | 32.9 | > 80.1 | 30.3 | > 60.9 | – | – | – | – | – | – | – | – |
